Among the test systems are KM20L2 colon; DMS 114 small cell lung; SNB-78 CNS; LXFL 529 NSCLC; XF 498 CNS; RXF-631 renal; DMS 273 small cell lung; HOP-18 NSCLC; MDA-N; P388/ADR leukemia; SN12K1 renal.
Holding throughout (assay): NCI tumour cell line growth inhibition, 48 h

For 20 compounds, TGI and GI50 results are on record in PubChem BioAssay (NCI).

SMILES strings stand for the structures. Values joined by “and” are separate entries in the source; they are usually repeats but may differ in a detail not shown here. Identical values can stand only once.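 The compound was tested at five concentrations on cells cultured in 96-well plates, with a 48-hour exposure period. Abbreviation: GI50, concentration required for 50% inhibition of growth. TGI denotes the concentration required for complete inhibition of growth.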 Some results are limits rather than exact numbers.

Take `C/C(CC(=O)Nc1cc(Cl)c(Cl)cc1Cl)=N\NS(=O)(=O)c1ccc(C)cc1`: the TGI in the assay on KM20L2 colon was greater than 100 µM; in the assay on DMS 114 small cell lung, 82.9 µM; in the assay on SNB-78 CNS, 93.7 µM; in the assay on LXFL 529 NSCLC, greater than 100 µM; with XF 498 CNS it was 77.9 µM; with RXF-631 renal it was greater than 100 µM.
Consider `O=C1/C(=C/c2ccc(Cl)cc2)COc2ccc(Br)cc21`, for which the TGI in the assay with KM20L2 colon, with DMS 114 small cell lung, in the assay with SNB-78 CNS, with LXFL 529 NSCLC, with XF 498 CNS and with DMS 273 small cell lung was greater than 100 µM in each case. The TGI in the assay on HOP-18 NSCLC and in the assay on RXF-631 renal was greater than 100 µM each time.
Take `CCC1C(=O)OCc2c1cc1n(c2=O)Cc2ccccc2-1` (stereo not given): the TGI in the assay on KM20L2 colon, with DMS 114 small cell lung, with SNB-78 CNS, in the assay on LXFL 529 NSCLC, in the assay on XF 498 CNS and in the assay with DMS 273 small cell lung was greater than 100 µM throughout. For the same compound, the TGI in the assay with HOP-18 NSCLC and with RXF-631 renal was greater than 100 µM in each case.
As to `Cc1cccc2c1C(=O)OC2(c1cccc2ccccc12)c1cccc2ccccc12`, the TGI is greater than 100 µM in the assay on KM20L2 colon; greater than 100 µM in the assay with DMS 114 small cell lung; greater than 100 µM in the assay on LXFL 529 NSCLC; greater than 100 µM with DMS 273 small cell lung; greater than 100 µM in the assay on HOP-18 NSCLC; 51.4 µM in the assay on RXF-631 renal.
As for `BrCC[N+]12CCCN1CCC2`, the TGI in the assay with KM20L2 colon turned out to be 42.2 µM; in the assay on MDA-N, 30.2 µM; in the assay on SNB-78 CNS it was 37.5 µM; with LXFL 529 NSCLC, 8.59 µM; in the assay on DMS 273 small cell lung it was 37.1 µM; in the assay on HOP-18 NSCLC it was 21.7 µM. This compound registered a TGI in the assay on RXF-631 renal of 46.4 µM.
Take `COc1cccc(C2N3CCCCC3[C@@H]3c4[nH]c5ccccc5c4CCN23)c1OC` (stereo not given in full): the TGI in the assay with KM20L2 colon was 27.4 µM; in the assay on DMS 114 small cell lung, 29.2 µM; in the assay on SNB-78 CNS, 29.8 µM; with LXFL 529 NSCLC, 28.5 µM; in the assay with XF 498 CNS it was 28.7 µM; with DMS 273 small cell lung, 29.7 µM. Also, the TGI is 31.6 µM in the assay on HOP-18 NSCLC and 32.4 µM with RXF-631 renal.
As to `N#CC(N)(C(=O)C(=O)NCCCNC(=O)C(=O)C(N)(C#N)c1ccc(Cl)cc1)c1ccc(Cl)cc1` (stereo not given), the TGI with KM20L2 colon, with DMS 114 small cell lung, with SNB-78 CNS, with LXFL 529 NSCLC, in the assay with XF 498 CNS and with DMS 273 small cell lung was greater than 100 µM in each case. Further, the TGI in the assay on HOP-18 NSCLC and in the assay on RXF-631 renal was greater than 100 µM throughout.
For `O=[N+]([O-])C1(CO)COC2(OC1)c1ccccc1-c1ccccc12`, the TGI in the assay with KM20L2 colon, with DMS 114 small cell lung, with MDA-N, with SNB-78 CNS, with LXFL 529 NSCLC and in the assay on DMS 273 small cell lung was greater than 100 µM throughout. The TGI in the assay on HOP-18 NSCLC and with RXF-631 renal was greater than 100 µM each time.
On to `CCCCCCCC(=O)O[C@H]1[C@H]2[C@@H](CC1(C)C)C(=O)[C@]13O[C@H]1C(=O)[C@]1(CO1)[C@]23C`, for which the GI50 was 2.73 µM in the assay with KM20L2 colon; 1.61 µM in the assay with DMS 114 small cell lung; 12.1 µM with SNB-78 CNS; 2.71 µM in the assay on XF 498 CNS; 10.5 µM in the assay on DMS 273 small cell lung. Also, the TGI in the assay with KM20L2 colon was 11.9 µM and 13.8 µM; in the assay on DMS 114 small cell lung it was 3.41 µM and 9.4 µM; in the assay with P388/ADR leukemia, 1.65 µM; in the assay on MDA-N, 26.5 µM; in the assay on SNB-78 CNS, 26.6 µM and 13.5 µM; with LXFL 529 NSCLC, 3.03 µM. For the same compound, the TGI in the assay with XF 498 CNS is 5.59 µM and 6.23 µM; in the assay on DMS 273 small cell lung, 22.9 µM and 15.3 µM; in the assay on SN12K1 renal, 9.3 µM; in the assay on HOP-18 NSCLC, 9.3 µM and 12.8 µM; in the assay on RXF-631 renal it was 39 µM.
`Nc1ccc(C(=O)N/C(=C\c2ccc3c(c2)OCO3)c2nc3ccc4c(c3[nH]2)C(=O)c2ccccc2C4=O)cc1`: the TGI with KM20L2 colon, with DMS 114 small cell lung, in the assay with SNB-78 CNS, in the assay on LXFL 529 NSCLC, in the assay with XF 498 CNS and with DMS 273 small cell lung was greater than 100 µM throughout. Further, the TGI in the assay with RXF-631 renal is greater than 100 µM.
For the compound `CC(C)S(=O)(=O)ON1C(=O)c2ccc([N+](=O)[O-])cc2C1=O`, the TGI in the assay on DMS 114 small cell lung, with SNB-78 CNS, in the assay with LXFL 529 NSCLC, in the assay with XF 498 CNS, in the assay on DMS 273 small cell lung and with HOP-18 NSCLC was greater than 100 µM throughout. For the same compound, the TGI in the assay with RXF-631 renal was greater than 100 µM.
As for `CC(C)C(NCc1c2ccccc2nc2ccccc12)C(=O)O` (stereo not given), the TGI was greater than 100 µM in the assay on KM20L2 colon; 90.1 µM with DMS 114 small cell lung; greater than 100 µM with LXFL 529 NSCLC; 62.4 µM in the assay on XF 498 CNS; greater than 100 µM in the assay on DMS 273 small cell lung; 97.3 µM in the assay on RXF-631 renal.
For `O=C1NC(=Nc2ccccc2Cl)SC1C(=O)Nc1ccc([N+](=O)[O-])cc1[N+](=O)[O-]` (stereo not given), the TGI in the assay on KM20L2 colon, in the assay on DMS 114 small cell lung, in the assay with SNB-78 CNS, in the assay on LXFL 529 NSCLC, in the assay with XF 498 CNS and in the assay with DMS 273 small cell lung was greater than 100 µM throughout. Besides, the TGI in the assay on HOP-18 NSCLC and in the assay with RXF-631 renal was greater than 100 µM each time.
Turning to `O=C1CCC(=O)C(C(=O)CCC(=O)Nc2ccc(Cl)cc2)C1` (stereo not given), the TGI in the assay on KM20L2 colon, in the assay with DMS 114 small cell lung, with SNB-78 CNS, in the assay with LXFL 529 NSCLC, in the assay on XF 498 CNS and with DMS 273 small cell lung was greater than 100 µM throughout. For the same compound, the TGI in the assay with HOP-18 NSCLC and in the assay on RXF-631 renal was greater than 100 µM throughout.
On to `CC(=O)OC1CC2C(C)(C)C(=O)C=C[C@]2(C)C2CCC3(C)C(=CCC3[C@H](CO)C[C@H](O)C(=O)C(C)(C)O)[C@]12C` (stereo not given in full), for which the TGI with KM20L2 colon was 28 µM; in the assay on DMS 114 small cell lung, greater than 100 µM; in the assay with SNB-78 CNS, greater than 100 µM; with LXFL 529 NSCLC, greater than 100 µM; in the assay with DMS 273 small cell lung, greater than 100 µM; in the assay on HOP-18 NSCLC, greater than 100 µM. Moreover, the TGI in the assay on RXF-631 renal was greater than 100 µM.
Turning to `CC1CC(=O)CC[C@@H]1OCc1ccccc1` (stereo not given in full), the TGI in the assay on KM20L2 colon, in the assay with DMS 114 small cell lung, in the assay on SNB-78 CNS, in the assay with XF 498 CNS, in the assay with DMS 273 small cell lung and in the assay on HOP-18 NSCLC was greater than 100 µM each time.
With `CCOc1c(Cc2ccccc2)c(=O)n2c3ccccc3n3c(=O)n(C)c(=O)c1c23`, the TGI in the assay with DMS 114 small cell lung, in the assay on SNB-78 CNS, in the assay with LXFL 529 NSCLC, in the assay on XF 498 CNS, in the assay with DMS 273 small cell lung and in the assay with HOP-18 NSCLC was greater than 100 µM throughout. The compound further showed a TGI with RXF-631 renal greater than 100 µM.
Consider `COc1ccc(CN[C@H]2CCc3cc(OC)c(OC)c(OC)c3-c3ccc(SC)c(=O)cc32)c(OC)c1OC`, for which the GI50 with KM20L2 colon was less than 0.01 µM; in the assay on SNB-78 CNS, less than 0.01 µM; with LXFL 529 NSCLC, less than 0.01 µM; in the assay on XF 498 CNS, 0.0201 µM; in the assay on DMS 273 small cell lung it was less than 0.01 µM. Also, the TGI was 0.0351 µM and 0.0146 µM in the assay on KM20L2 colon; 0.0402 µM in the assay on DMS 114 small cell lung; greater than 100 µM with SNB-78 CNS; greater than 100 µM in the assay on LXFL 529 NSCLC; 0.0848 µM and 0.0836 µM in the assay on XF 498 CNS; 0.0336 µM in the assay on DMS 273 small cell lung. In the assay with HOP-18 NSCLC, this compound yielded a TGI greater than 100 µM.
On to `COC(=O)C1=C(c2cc(OC)c(OC)c(OC)c2)OC(c2cc(OC)c(OC)c(OC)c2)C1` (stereo not given), for which the TGI in the assay with KM20L2 colon is 73.6 µM; in the assay on DMS 114 small cell lung it was 82.9 µM; with SNB-78 CNS, greater than 100 µM; in the assay with LXFL 529 NSCLC, 54.9 µM; in the assay with XF 498 CNS it was 72 µM; in the assay on DMS 273 small cell lung it was greater than 100 µM. The compound further had a TGI in the assay with HOP-18 NSCLC of 50.2 µM.
`COC(=O)C([O][Ge]([CH3])([CH3])[CH3])c1ccccc1` (stereo not given): the GI50 in the assay with KM20L2 colon, in the assay on DMS 114 small cell lung, with LXFL 529 NSCLC, in the assay on HOP-18 NSCLC and in the assay with RXF-631 renal was greater than 100 µM throughout. Besides, the TGI with KM20L2 colon, with DMS 114 small cell lung, in the assay with LXFL 529 NSCLC, with HOP-18 NSCLC and with RXF-631 renal was greater than 100 µM in each case.
